Here are results for four compounds from US8729047B2, “Compositions for inhibiting redox-sensitive GTPases” (Board of Regents, The University of Texas System, priority 2010, dated 2014).

One assay concerns HME-RhoC cells. As to the kind of experiment: Matrigel invasion (cell motility) assay. The format is cell-based, human. The method, then: FIG. 5. Determination of cell invasiveness in the presence and absence of 6-thiopurine and/or a redox agent. The top chamber of a Transwell filter (6.5 mm with 8 μm pores, Costar; Corning, N.Y.) was coated with a 10 μL aliquot of 10 mg/mL Matrigel (BD Biosciences, Bedford Mass.), and the lower chamber of the Transwell was filled with either serum-free or serum-containing media. Sample cells (e.g., 6-TG-resistant HME-RhoC cells) were prepared to resuspend cells in a serum-free medium with 0.1% BSA at a concentration of 4×10^5 cells/mL. At this point, neither 6-thiopurine nor GSNO were added to the cells. The sample cells (0.5 mL) were added to the top chamber of a Transwell filter and were incubated for 24 h at 37° C. in a 10% CO2 incubator. The Transwell filters were fixed with methanol, stained with H&E, and cells in the serum-containing samples were counted. The number of cells that had invaded the serum-free medium-containing lower chambers was used as a control background. Results are given as percent invasion over that seen in HME-RhoC cells (100%) and represent mean and standard error values from triplicate measurements.
FIG. 11. Determination of cell invasiveness in the presence and absence of […] and/or a redox agent. […] The number of cells that had invaded the serum-free medium-containing lower chambers was used as a control background. Results are given as percent invasion over that seen in HME-RhoC cells (100%) and represent mean and standard error values from triplicate measurements.
FIG. 14. Determination of cell invasiveness in the presence and absence of thiopurines and/or redox agents. […] Western blot analysis representing the total expression of RhoC in these cells also is shown. (B) Experimental procedures for the determination of the time-dependent motility of cells using the QCM Cell Invasion Assay kit in the presence and absence of 6-TG and DETA/NO are described elsewhere herein.
The top chamber of a Transwell filter (6.5 mm with 8 μm pores, Costar; Corning, N.Y.) was coated with a 10 μL aliquot of 10 mg/mL Matrigel, and the lower chamber of the Transwell was filled with either serum-free or serum-containing media. Sample cells were prepared to resuspend cells in a serum-free medium with 0.1% BSA at a concentration of 4×10^5 cells/mL. […] The Transwell filters were fixed with methanol, stained with haematoxylin and eosin, and cells in the serum-containing samples were counted. The number of cells that had invaded the serum-free, medium-containing lower chambers was used as a control background.

Another assay deals with Rac1 (Homo sapiens, UniProt P63000). The assay can be described thus: Rac1 expression (Western) and Rac1 G-LISA activity in activated T cells. The assay is classed as cell-based. On the procedure:
FIG. 26. Determination of Rac1 activity and ERM phosphorylation. […] (A) The soluble cell extract was then used to perform Western blot analyses for Rac1 and the ERM. This cell extract also was used for the co-IP-based ESI-MS analysis (FIG. 8). (B) A Rac1 activity assay was colorimetrically determined using cell extract; the assay was performed with the Rac1 G-LISA Activation Assay Kit (Cat. No. BK125) (Denver, Colo.). To examine the level of phosphorylation of the ERM, cells were cultured in complete RPMI 1640 medium with ˜50 μCi of ^32P/mL before initiating stimulation of T cells. The collected cell extract was nutated with resin coupled with a human ERM (231C2a) antibody (Santa Cruz Biotechnology, CA) at 4° C. for 5 h. […] The immunoprecipitates were then analyzed by SDS-PAGE and autoradiographed. […] The data represented in the figure represent the mean values of triplicate measurements, and the vertical error bar indicates standard errors.

For a further assay, the target named is RhoC C20S (Homo sapiens, UniProt P08134, C20S). The assay can be described thus: Competitive binding assay, [3H]GDP-loaded Rho protein titrated with 6-TGDP (FIG. 16A). Also noted: made in house; host or cells: E. coli. On the procedure: (§1) FIG. 16. Kinetic properties of RhoC with 6-TGDP in the presence or absence of a redox agent. All kinetic analyses are described elsewhere herein. (A) ^appKD values of Rac1, RhoA, RhoC, and RhoC C20S for 6-TGDP were estimated to be 7.9, 11.6, 11.8, and 11.2 μM, respectively. ^trueKD values of Rac1, RhoA, […] for 6-TGDP were then calculated to be 5.1, 10.8, 11.1, and 10.5 μM, respectively, by using a compensation equation, ^trueKD for 6-TGDP=^appKD for 6-TGDP/(1+[[^3H]GDP]/^trueKD for GDP) (Heo, J., and Hong, I. (2010) Biochemistry 49, 3965-3976), in conjunction with the values given. […] The GDP dissociation rates from RhoC C20S by NO, .NO2, and N2O3 were estimated to be 0.02×10^−3, 0.05×10^−3, and 0.04×10^−3 s^−1, respectively. […] (D) ^appKD values of RhoC for [^3H]GDP in the presence or absence of DTT were estimated to be 22.4 μM and […], respectively. ^appKD values of C20S RhoC for [^3H]GDP in the presence or absence of DTT were determined to be 24.8 μM and 25.2 μM, respectively. The regression values associated with these fits were >0.8595. All data points associated with vertical standard error bars shown in this figure are the mean values of triplicate measurements.
Sequence of RhoC C20S (P08134 whole entry C20S): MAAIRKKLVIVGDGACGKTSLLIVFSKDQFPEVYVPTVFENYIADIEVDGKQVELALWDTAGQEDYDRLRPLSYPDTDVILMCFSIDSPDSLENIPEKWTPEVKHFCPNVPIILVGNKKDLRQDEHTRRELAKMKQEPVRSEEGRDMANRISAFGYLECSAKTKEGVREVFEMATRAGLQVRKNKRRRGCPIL
(§2) Transition metal-free assay buffer and vials as described in a previous study (Heo et al. Biochemistry 49, 3965-3976 (2010)) were used for all kinetic assays. The kinetic assay buffer contains the highest grade of 50 mM NaCl, 10 mM MgCl2, 1 mM EDTA, and 0.1 mM DTPA in 50 mM TrisHCl (pH 7.4). Before performance of any of the assays, all protein samples also were dialyzed with a metal-free buffer under anaerobic conditions. As with RhoA and Rac1 (Heo et al. J. Biol. Chem. 280, 31003-31010 (2005)), C20S RhoC were expressed in E. coli and purified using anionic and size exclusion columns.
(§3) (a) A competitive binding assay was performed to determine the binding affinity of Rho GTPase and 6-TGDP. The radiolabeled [^3H]GDP-loaded Rho protein (1 μM) was titrated with various concentrations of 6-TGDP. The titrated Rho protein sample then was spotted onto a nitrocellulose membrane. Each membrane was washed three times with the assay buffer, and radioactivity was determined using a Beckman-Coulter scintillation counter. The radioactivity of the sample (Rho protein-bound [^3H]GDP) was converted into, and thus plotted, as the fraction of mol GDP per mol total Rho protein. The apparent dissociation constant (^appKD) of the Rho protein with [^3H]GDP in the presence of 6-TGDP was determined by using Prism software to fit the titration curve to a hyperbola.

The next assay concerns the target RhoC (Homo sapiens, UniProt P08134). Described as above. More on the design: made in house; host or cells: E. coli. On the procedure:
as §1, §2, §3

The mark [1] stands for this setting: determined within this study, read-out: trueKD for GDP.
[2] abbreviates: [3H]GDP-loaded Rho protein 1 μM titrated with 6-TGDP, FIG. 16A, read-out: appKD for 6-TGDP.

The structures appear in SMILES notation. Where two headings read alike, the source gives them in different places.

Sequence of RhoC (P08134 whole entry): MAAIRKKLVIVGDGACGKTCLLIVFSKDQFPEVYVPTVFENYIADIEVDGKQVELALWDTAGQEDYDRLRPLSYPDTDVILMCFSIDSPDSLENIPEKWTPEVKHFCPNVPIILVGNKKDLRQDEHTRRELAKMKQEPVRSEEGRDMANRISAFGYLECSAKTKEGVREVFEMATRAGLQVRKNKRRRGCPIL

As to `Nc1nc2[nH]c(S)nc2c(=O)[nH]1` [8-TG, 2-amino-8-mercapto-1H-purin-6(9H)-one], in the assay with HME-RhoC cells (8-TG for a week, then DETA/NO or GSNO 10 μM every 20 or 8 h), the “invasive mobility after 8-TG followed by NO donor” value was “virtually all of the invasive mobility of HME-RhoC cells was immediately terminated”. Moreover, the “termination of RhoC-mediated cell invasiveness, 8-TG with redox agent versus 6-TG-redox combination” value with HME-RhoC cells (in conjunction with a redox agent) is “much more effective than a 6-TG-redox combination”. Besides, in the assay on HME-RhoC cells (in the presence of NO donor DETA/NO), the “screen of thiopurine analogs on invasive cell mobility” value is reported as “most effectively inhibits”. In the assay with HME-RhoC cells (only 8-TG 1 μM, FIG. 11), the “decline of invasive cell mobility over 5 days of continuous treatment” value is listed as roughly 60% and the “decline of invasive cell mobility within a day” value is listed as roughly 10%. In addition, the “screen of 6-TP isomers on Rac1 activity” value on Rac1 (not shown) is recorded as “most effectively inhibits Rac1 activity”.

For `Nc1nc2c(ncn2[C@@H]2O[C@H](COP(=O)(O)OP(=O)(O)O)[C@@H](O)[C@H]2O)c(=O)[nH]1` [GDP], the results for the Kd at RhoC C20S (setting [1]) and on RhoC (setting [1]) were 14.2 ± 8 µM and 15 ± 8 µM, respectively.

Consider `Nc1nc2nc[nH]c2c(=S)[nH]1` [6-TG, 6-thioguanine], for which the cell motility entry in the assay on HME-RhoC cells (6-TG 1 μM alone, three or more consecutive days, FIG. 14A) is “gradual but significant diminution of cell motility”. Also, in the assay with HME-RhoC cells (6-TG 1 μM with DETA/NO (or GSNO) 10 μM, three days, FIG. 14A), the invasive cell motility entry is recorded as “complete termination of the invasive cell motility”. For the same compound, at Rac1 (6-TG 1 μM, within 3 days, FIG. 26B), the Rac1 inactivation result is “significant portion of Rac1 was inactivated”. For the same compound, the “fraction of inactive Rac1” value at Rac1 (6-TG plus DETA/NO 10 μM) was “synergistically increases the fraction of inactive Rac1”. Further, the “cellular expression level of Rac1 and ERM” value at Rac1 (presence or absence of 6-TG, FIG. 26A) is listed as “not changed”.

On to `Nc1nc2c(ncn2[C@@H]2O[C@H](COP(=O)(O)OP(=O)(O)O)[C@@H](O)[C@H]2O)c(=S)[nH]1` [6-TGDP, 6-thioguanosine diphosphate], for which the Kd at RhoC C20S (setting [2]) is 11.2 µM; at RhoC C20S (calculated by compensation equation, FIG. 16A, fourth value of the list, read-out: trueKD for 6-TGDP), 10.5 µM; at RhoC (setting [2]), 11.8 µM; on RhoC (calculated by compensation equation, FIG. 16A, read-out: trueKD for 6-TGDP), 11.1 µM.
